{
  "source": "patent US10542753B2",
  "about": "“Compositions for improving budbreak and flowering” (Zelam Limited, priority 2015, dated 2020)",
  "key": {"Granny Smith Apples": {"tested_on": "Granny Smith Apples", "experiment": "Trial 8: sprayed trees, budbreak, flowering and fruit set on fruiting spurs", "assay_type": "in vivo", "description": "Trial 8: Use on Granny Smith Apples was evaluated in New Plymouth, New Zealand following a poor winter chill in 2013. Treatments were applied on 9 Aug. 2013 at 200 L/Ha using a manual backpack sprayer in a replicated trial (4 replications of two tree plots)."}, "Gold3 [1]": {"tested_on": "Gold3", "experiment": "Trial 6: sprayed trial after good winter chill (Hawkes Bay)", "assay_type": "in vivo, Actinidia chinensis Planch. var. chinensis 'Zesy002'", "description": "(§1) These 2014 sprayed trials were performed in the Bay of Plenty (Trial 5, five replicates, each a bay comprising two vines with ten assessment canes per rep, five on each side of the bay) and Hawkes Bay, NZ (Trial 6, four replicates, each a bay comprising four vines with twenty assessment canes per rep, five from each vine). HC (700 litres/Ha) and Examples 9 and 10 (800 litres/Ha) were sprayed on 16-Aug (37 DBNB, Trial 5) and 11-Aug (30 DBNB, Trial 6). FIG. 7 illustrates the progression of budbreak in Trial 5 and FIG. 8 illustrates the progression of budbreak in Trial 6.\n(§2) Under current management practices Gold3 growers require at least about 1.8 single flowers per winter bud (SFWB) to achieve the recommended packout of 17,000 trays/Ha."}, "Hayward kiwifruit": {"tested_on": "Hayward kiwifruit", "experiment": "Trial 1: cane painting, budbreak and flowering", "assay_type": "in vivo, Actinidia deliciosa", "conditions": "for Spread of BB: spread = 4x standard deviation; for Advance in Midpoint / Reduction in Spread: vs untreated", "description": "A cane painting experiment was performed in a Hayward kiwifruit orchard in the Bay of Plenty New Zealand in 2010 following a winter with average winter chill. Low-medium vigour canes of 1.6 m average length from 36 vines were tagged and either left untreated or painted with one of HC, Examples 1-4 and Comparative Example 1. The date of painting (6-Aug) was 56 days before natural budbreak (DBNB). Budbreak (BBCH stage 9) and flowering (BBCH stage 60) were determined based on the photographs published by Salinero et al., 2009, “Phenological growth stages of kiwifruit (Actinidia deliciosa ‘Hayward’)”, Scientia Horticulturae 121, 27-31, which is hereby incorporated by reference in its entirety. Graphed and tabulated data represent averages of the 36 replicates and are normalised based on the number of winter buds on each cane.\nFIG. 1 illustrates the progression of budbreak in Trial 1. FIG. 2 illustrates the progression of flowering in Trial 1. The progress curves depicted in FIGS. 1 and 2 were fitted to a cumulative normal curve to calculate the midpoints of budbreak and flowering (the dates corresponding to a 50% response) and spread of response time (defined as 4× standard deviation) as summarised in Tables 1 and 2."}, "Hayward kiwifruit vines": {"tested_on": "Hayward kiwifruit vines", "experiment": "Trial 2: cane painting, salicylic acid dose-response, budbreak", "assay_type": "in vivo, Actinidia deliciosa", "description": "A cane painting experiment was performed in 2012 in a Hayward kiwifruit orchard in Taranaki, New Zealand. Canes of 1.2 m average length from 33 vines were tagged and either left untreated or painted with one of HC, Examples 5-8 and Comparative Examples 2 and 3 on 9-Aug, 50 DBNB (28-Sep). Midpoints and spread were calculated for budbreak (Table 3) but there were insufficient data to perform the calculations for flowering. […] FIG. 3 illustrates the progression of budbreak in Trial 2. FIG. 4 illustrates the progress of flowering in Trial 2."}, "Psa": {"tested_on": "Psa", "experiment": "Trial 3: whole-vine spray in Psa-infected orchard, Psa leaf spotting", "assay_type": "in vivo, Hayward kiwifruit vines", "conditions": "for % Incidence: Psa leaf spotting", "excerpt": "A trial in which whole Hayward kiwifruit vines were sprayed was established in the Bay of Plenty in 2013. There were twelve replicates and two sets of untreated vines. HC (700 litres/Ha) and the composition of Example 8 (800 litres/Ha) were applied on three dates using a boom sprayer designed to produce spray deposition typical of an orchard air blast sprayer. Of particular interest in this trial was the prevalence of Psa leaf spotting that became evident in late spring, particularly in the early HC-sprayed vines. Vines were assessed for Psa leaf spotting by rating 40 randomly selected leaves (10 on each side of the two leaders that made up each vine) on a 1-5 scale (Table 4)."}, "Gold3 kiwifruit": {"tested_on": "Gold3 kiwifruit", "experiment": "Trial 4: cane painting, budbreak and flowering", "assay_type": "in vivo, Actinidia chinensis Planch. var. chinensis 'Zesy002'", "design": "Spread of BB / Advance in Midpoint / Reduction in Spread: unit not given here", "conditions": "for KFFS: king flowers per floral shoot; for KFWB: king flowers per winter bud; for Advance in Midpoint / Reduction in Spread: vs untreated", "description": "This cane painting experiment was performed in a Bay of Plenty orchard in 2013 following a winter with poor chill in the key months of May and June. Low-medium vigour canes typical of the orchard were painted with either HC or Example 9 on 13-Aug and 20-Aug, 34 and 27 days before natural budbreak which occurred on 16-Sep. […] FIG. 5 illustrates the progression of budbreak and FIG. 6 illustrates the progress of flowering in Trial 4."}, "Gold3 [2]": {"tested_on": "Gold3", "experiment": "Trial 5: sprayed trial after poor winter chill (Bay of Plenty)", "assay_type": "in vivo, Actinidia chinensis Planch. var. chinensis 'Zesy002'", "description": "as §1, §2"}, "[3]": {"conditions": "cited from earlier work"}, "[4]": {"conditions": "Pahokee muck soil under varying agricultural practices; cited from earlier work"}, "[5]": {"conditions": "Trial 5, Bay of Plenty, poor winter chill"}},
  "data": [
    {"smiles": "N#CN", "note": "[HC, hydrogen cyanamide]", "values": [
      {"measurement": "% Budbreak 28 DAA", "setting": "Granny Smith Apples; 28 DAA", "value": 14, "unit": "%"},
      {"measurement": "% Budbreak 39 DAA", "setting": "Granny Smith Apples; 39 DAA", "value": 39, "unit": "%"},
      {"measurement": "% Budbreak 47 DAA", "setting": "Granny Smith Apples; 47 DAA", "value": 34, "unit": "%"},
      {"measurement": "% Flowering 54 DAA", "setting": "Granny Smith Apples; 54 DAA", "value": 66, "unit": "%"},
      {"measurement": "% Fruit set 74 DAA", "setting": "Granny Smith Apples; 74 DAA", "value": 16, "unit": "%"},
      {"measurement": "frequency of laterals (in words)", "setting": "Gold3 [1]; Trial 6, Hawkes Bay, good winter chill", "value": "further increased"},
      {"measurement": "% Laterals", "setting": "Gold3 [1]; in vivo", "value": 31.2, "unit": "%"},
      {"measurement": "KFWB", "setting": "Gold3 [1]; king flowers per winter bud", "value": 2.61},
      {"measurement": "SFWB", "setting": "Gold3 [1]; single flowers per winter bud", "value": 1.8},
      {"measurement": "% Budbreak", "setting": "Gold3 [1]; sprayed 11-Aug (30 DBNB)", "value": 55.9, "unit": "%"},
      {"measurement": "Spread of BB", "setting": "Hayward kiwifruit; Table 2, flowering", "value": 7},
      {"measurement": "Advance in Midpoint", "setting": "Hayward kiwifruit; Table 2, flowering", "value": 6},
      {"measurement": "Reduction in Spread", "setting": "Hayward kiwifruit; Table 2, flowering", "value": 9},
      {"measurement": "Spread of BB", "setting": "Hayward kiwifruit; budbreak", "value": 17},
      {"measurement": "Advance in Midpoint", "setting": "Hayward kiwifruit; budbreak", "value": 16},
      {"measurement": "Reduction in Spread", "setting": "Hayward kiwifruit; budbreak", "value": 32},
      {"measurement": "budbreak response (in words)", "setting": "Hayward kiwifruit vines; Trial 2, FIG. 3, vs untreated", "value": "improved considerably"},
      {"measurement": "Spread of BB", "setting": "Hayward kiwifruit vines; budbreak", "value": 19},
      {"measurement": "Advance in Midpoint", "setting": "Hayward kiwifruit vines; budbreak, vs untreated", "value": 12},
      {"measurement": "Reduction in Spread", "setting": "Hayward kiwifruit vines; budbreak, vs untreated", "value": 7},
      {"measurement": "change in Psa leaf spotting (ANOVA, in words)", "setting": "Psa; HC after the first two applications, Example 8 at all application dates", "value": "significant increase"},
      {"measurement": "% Incidence", "setting": "Psa; applied 15-Aug (46 DBNB)", "value": 51.5, "unit": "a %"},
      {"measurement": "% Incidence", "setting": "Psa; applied 24-Aug (37 DBNB)", "value": 21.7, "unit": "b %"},
      {"measurement": "% Incidence", "setting": "Psa; applied 30-Aug (31 DBNB)", "value": 18.3, "unit": "bc %"},
      {"measurement": "Leaf spotting score", "setting": "Psa; applied 15-Aug (46 DBNB), 40 leaves rated on 1-5 scale", "value": 1.15, "unit": "a"},
      {"measurement": "Leaf spotting score", "setting": "Psa; applied 24-Aug (37 DBNB)", "value": 0.42, "unit": "b"},
      {"measurement": "Leaf spotting score", "setting": "Psa; applied 30-Aug (31 DBNB)", "value": 0.31, "unit": "bc"},
      {"measurement": "frequency of lateral flowers (doubles and triples) (in words)", "setting": "Gold3 kiwifruit; Trial 4", "value": "increased the frequency of lateral flowers"},
      {"measurement": "king flowers per winter bud (KFWB) (in words)", "setting": "Gold3 kiwifruit; Trial 4, vs untreated", "value": "large increases"},
      {"measurement": "KFFS", "setting": "Gold3 kiwifruit; painted 27 DBNB (20-Aug)", "value": 2.35},
      {"measurement": "KFFS", "setting": "Gold3 kiwifruit; painted 34 DBNB (13-Aug)", "value": 2.90},
      {"measurement": "KFWB", "setting": "Gold3 kiwifruit; painted 27 DBNB (20-Aug)", "value": 1.19},
      {"measurement": "KFWB", "setting": "Gold3 kiwifruit; painted 34 DBNB (13-Aug)", "value": 1.48},
      {"measurement": "% Budbreak", "setting": "Gold3 kiwifruit; painted 27 DBNB (20-Aug)", "value": 72.1, "unit": "%"},
      {"measurement": "% Deformed", "setting": "Gold3 kiwifruit; painted 27 DBNB (20-Aug)", "value": 0.2, "unit": "%"},
      {"measurement": "% Laterals", "setting": "Gold3 kiwifruit; painted 27 DBNB (20-Aug)", "value": 1.8, "unit": "%"},
      {"measurement": "Floral shoots", "setting": "Gold3 kiwifruit; painted 27 DBNB (20-Aug)", "value": 71, "unit": "%"},
      {"measurement": "Spread of BB", "setting": "Gold3 kiwifruit; painted 27 DBNB (20-Aug)", "value": 24},
      {"measurement": "Advance in Midpoint", "setting": "Gold3 kiwifruit; painted 27 DBNB (20-Aug)", "value": 15},
      {"measurement": "Reduction in Spread", "setting": "Gold3 kiwifruit; painted 27 DBNB (20-Aug)", "value": 17},
      {"measurement": "% Budbreak", "setting": "Gold3 kiwifruit; painted 34 DBNB (13-Aug)", "value": 64.5, "unit": "%"},
      {"measurement": "% Deformed", "setting": "Gold3 kiwifruit; painted 34 DBNB (13-Aug)", "value": 1.7, "unit": "%"},
      {"measurement": "% Laterals", "setting": "Gold3 kiwifruit; painted 34 DBNB (13-Aug)", "value": 9.9, "unit": "%"},
      {"measurement": "Floral shoots", "setting": "Gold3 kiwifruit; painted 34 DBNB (13-Aug)", "value": 83, "unit": "%"},
      {"measurement": "Spread of BB", "setting": "Gold3 kiwifruit; painted 34 DBNB (13-Aug)", "value": 12},
      {"measurement": "Advance in Midpoint", "setting": "Gold3 kiwifruit; painted 34 DBNB (13-Aug)", "value": 19},
      {"measurement": "Reduction in Spread", "setting": "Gold3 kiwifruit; painted 34 DBNB (13-Aug)", "value": 30},
      {"measurement": "flower numbers (in words)", "setting": "Gold3 [2]; [5]", "value": "excessive flower numbers"},
      {"measurement": "frequency of double and triple flowers / laterals (in words)", "setting": "Gold3 [2]; [5]", "value": "nearly doubled"},
      {"measurement": "% Double flowers", "setting": "Gold3 [2]; in vivo", "value": 14.4, "unit": "%"},
      {"measurement": "% Laterals", "setting": "Gold3 [2]; in vivo", "value": 18.7, "unit": "%"},
      {"measurement": "% Triple flowers", "setting": "Gold3 [2]; in vivo", "value": 4.3, "unit": "%"},
      {"measurement": "KFWB", "setting": "Gold3 [2]; king flowers per winter bud", "value": 3.1},
      {"measurement": "SFWB", "setting": "Gold3 [2]; single flowers per winter bud", "value": 2.5},
      {"measurement": "% Budbreak", "setting": "Gold3 [2]; sprayed 16-Aug (37 DBNB)", "value": 56.9, "unit": "%"}
    ]},
    {"smiles": "O=C(O)c1ccccc1O", "note": "[Salicylic acid, salicylic acid]", "values": [
      {"measurement": "Solubility in ethanol", "setting": "[3]; 21° C.", "value": 34.87, "unit": "% w/w"},
      {"measurement": "Solubility in propanol", "setting": "[3]; 21° C.", "value": 27.36, "unit": "% w/w"},
      {"measurement": "Solubility in benzene", "setting": "[3]; 25° C.", "value": 0.775, "unit": "% w/w"},
      {"measurement": "Biodegradation", "setting": "[4]", "value": "rapid"}
    ]}
  ]
}
